Experimental findings from ChEMBL document CHEMBL1221236, “Discovery of a factor Xa inhibitor (3R,4R)-1-(2,2-difluoro-ethyl)-pyrrolidine-3,4-dicarboxylic acid 3-[(5-chloro-pyridin-2-yl)-amide] 4-[[2-fluoro-4-(2-oxo-2H-pyridin-1-yl)-phenyl]-amide] as a clinical candidate” (Bioorg Med Chem Lett, 2010) are described below.

As usually defined, the logD is lipophilicity at a set pH, counting ionised and neutral species. As usually defined, the half-life is the time in which the quantity being followed falls by half. For orientation: AUC means concentration integrated over time. As usually defined, the clearance is a measure of how efficiently the substance is removed, as volume per time. What is called pKa is the negative logarithm of the acid dissociation constant. For orientation: bioavailability means the share of a dose that reaches the circulation, judged against a reference dose that is usually intravenous.

Series [1] in a line: Lipophilicity, log D of the compound at pH 7.4. The series is classed as physicochemical. Conditions: buffer; call rule not given here.
Series [2] can be described thus: Half life in po dosed rat. The series is classed as ADME, organism-based. Conditions: in vivo.
Series [3] relates to Rattus norvegicus. Nature of the series: Dose normalized AUC in po dosed rat. The series is classed as ADME, organism-based. Conditions: in vivo.
Series [4] is described as follows: Clearance in rat. Conditions: in vivo. The series is classed as ADME, organism-based.
Series [5] is described as follows: Half life in cynomolgus monkey. The series is classed as ADME, organism-based, Macaca fascicularis. Conditions: in vivo.
Series [6] has as its system Phospholipidosis. Put plainly: In vitro phospholipidosis. The series is classed as ADME, cell-based. Conditions: human, hepg2.
Series [7] can be described thus: Clearance in cynomolgus monkey. The series is classed as ADME, organism-based, Macaca fascicularis. Conditions: in vivo.
Series [8] is described as follows: Dissociation constant, pKa of the compound. The series is classed as physicochemical.
In series [9] the test system is Cynomolgus monkey. Put plainly: Dose normalized AUC in po dosed cynomolgus monkey. The series is classed as ADME, organism-based, Macaca fascicularis. Conditions: in vivo.
A short description of series [10]: Oral bioavailability in rat. The series is classed as ADME, organism-based. Conditions: in vivo.
The nature of series [11]: Oral bioavailability in cynomolgus monkey. The series is classed as ADME, organism-based, Macaca fascicularis. Conditions: in vivo.
Series [12] can be described thus: Volume of distribution at steady state in cynomolgus monkey. The series is classed as ADME, organism-based, Macaca fascicularis. Conditions: in vivo, read-out: Vdss.
Series [13] in a line: Volume of distribution at steady state in rat. The series is classed as ADME, organism-based. Conditions: in vivo, read-out: Vdss.
The nature of series [14]: Permeability of the compound by PAMPA. The series is classed as ADME. Conditions: read-out: permeability. For orientation: PAMPA measures passive passage across an artificial lipid membrane.

The compound `COc1ccc(NC(=O)[C@H]2CN(S(C)(=O)=O)C[C@@H]2C(=O)Nc2ccc(-n3ccccc3=O)cc2F)cc1Cl` gave a logD in series [1] of 1.9.
`CS(=O)(=O)N1C[C@H](C(=O)Nc2ccc(Cl)cc2)[C@@H](C(=O)Nc2ccc(-n3ccccc3=O)cc2F)C1` gave a logD in [1] of 2.17.
Take `CS(=O)(=O)N1C[C@H](C(=O)Nc2ccc3[nH]ccc3c2)[C@@H](C(=O)Nc2ccc(-n3ccccc3=O)cc2F)C1`: in [1], the logD is 1.07.
Still for that read-out and setting: the figure for `CCCOC(=O)N1C[C@H](C(=O)Nc2ccc(Cl)cc2)[C@@H](C(=O)Nc2ccc(-n3ccccc3=O)cc2F)C1` is 3.06; for `CS(=O)(=O)N1C[C@H](C(=O)Nc2ccc3[nH]ncc3c2)[C@@H](C(=O)Nc2ccc(-n3ccccc3=O)cc2F)C1` it is 0.5; for `COc1ccc(NC(=O)[C@H]2CN(S(C)(=O)=O)C[C@@H]2C(=O)Nc2ccc(-n3ccccc3=O)cc2F)cc1` it is 1.19.
Take `CC(C)N1C[C@H](C(=O)Nc2ccc(Cl)cn2)[C@@H](C(=O)Nc2ccc(-n3ccccc3=O)cc2F)C1`: the half-life in [2] was 2.9 h; in series [5] it was 4.7 h. Moreover, the figures for the exposure (AUC) in series [3] and in series [9] were 900 ng·h/mL and 820 ng·h/mL, respectively. The clearance is 4.2 mL/min/kg in series [4] and 17 mL/min/kg in series [7]. The Phospholipidosis entry in series [6] is listed as “Active”. Further, the pKa in series [8] worked out at 7.55. For the same compound, the bioavailability in series [10] worked out at 39%; in series [11] it was 80%. For the same compound, the log distribution coefficient (logD) in [1] was 1.86. Also, the Vd in [12] came out at 1.6 L/kg; in [13], 0.47 L/kg.
`O=C(Nc1ccc(Cl)cc1)[C@H]1CN(C(=O)N2CCCC2)C[C@@H]1C(=O)Nc1ccc(-n2ccccc2=O)cc1F` gave a logD in series [1] of 2.78.
The same measure, in the same setting: the figure for `CC(=O)N1C[C@H](C(=O)Nc2ccc(Cl)cc2)[C@@H](C(=O)Nc2ccc(-n3ccccc3=O)cc2F)C1` is 1.8; for `CN(C)S(=O)(=O)N1C[C@H](C(=O)Nc2ccc(Cl)cc2)[C@@H](C(=O)Nc2ccc(-n3ccccc3=O)cc2F)C1` it is 2.62; for `O=C(Nc1ccc(Cl)cc1)[C@H]1CN(CC(F)F)C[C@@H]1C(=O)Nc1ccc(-n2ccccc2=O)cc1F` it is 2.69.
The compound `CCOC(=O)N1C[C@H](C(=O)Nc2ccc(Cl)cc2)[C@@H](C(=O)Nc2ccc(-n3ccccc3=O)cc2F)C1` gave a logD in series [1] of 2.57.
Take `O=C(Nc1ccc(Cl)cc1)[C@H]1CN(CC(F)(F)F)C[C@@H]1C(=O)Nc1ccc(-n2ccccc2=O)cc1F`: in series [1], the logD worked out at 3.2.
Consider `CCS(=O)(=O)N1C[C@H](C(=O)Nc2ccc(Cl)cn2)[C@@H](C(=O)Nc2ccc(-n3ccccc3=O)cc2F)C1`, for which the half-life was 1.1 h in [2] and 1.9 h in series [5]. Besides, the AUC in [3] turned out to be 3300 ng·h/mL; in series [9], 230 ng·h/mL. Moreover, the results for the clearance in series [4] and in series [7] were 1.3 mL/min/kg and 5.5 mL/min/kg, respectively. Further, the Phospholipidosis result in [6] is “Not Active”. Also, the pKa in [8] was 2.99. Moreover, the bioavailability in series [10] came to 24%; in series [11], 9%. For the same compound, the logD in series [1] was 1.77. The Vd was 0.46 L/kg in series [12] and 0.04 L/kg in [13].
In series [1], `CS(=O)(=O)N1C[C@H](C(=O)Nc2ccc(Cl)cn2)[C@@H](C(=O)Nc2ccc(-n3ccccc3=O)cc2F)C1` displayed a logD of 1.46.
With `CC(C)S(=O)(=O)N1C[C@H](C(=O)Nc2ccc(Cl)cc2)[C@@H](C(=O)Nc2ccc(-n3ccccc3=O)cc2F)C1`, the logD in series [1] is 2.81.
On the same count and under the same terms, the figure for `O=C(Nc1ccc(Cl)cn1)[C@H]1CNC[C@@H]1C(=O)Nc1ccc(-n2ccccc2=O)cc1F` is 0.63; for `NS(=O)(=O)N1C[C@H](C(=O)Nc2ccc(Cl)cc2)[C@@H](C(=O)Nc2ccc(-n3ccccc3=O)cc2F)C1` it is 1.83; for `COc1ccc(NC(=O)[C@H]2CN(S(C)(=O)=O)C[C@@H]2C(=O)Nc2ccc(-n3ccccc3=O)cc2F)cc1F` it is 0.56.
`CS(=O)(=O)N1C[C@H](C(=O)Nc2ccc(Cl)c(F)c2)[C@@H](C(=O)Nc2ccc(-n3ccccc3=O)cc2F)C1` gave a logD in series [1] of 2.37.
Take `CCS(=O)(=O)N1C[C@H](C(=O)Nc2ccc(Cl)cc2)[C@@H](C(=O)Nc2ccc(-n3ccccc3=O)cc2F)C1`: in [1], the logD was 2.44.
In series [1], `O=C(Nc1ccc(Cl)cn1)[C@H]1CN(CC(F)(F)F)C[C@@H]1C(=O)Nc1ccc(-n2ccccc2=O)cc1F` displayed a logD of 2.62.
Consider `O=C(Nc1ccc(Cl)cc1)[C@H]1CN(CCO)C[C@@H]1C(=O)Nc1ccc(-n2ccccc2=O)cc1F`, for which the logD in series [1] is 1.8.
With `CS(=O)(=O)N1C[C@H](C(=O)Nc2ccc(Cl)cc2)[C@@H](C(=O)Nc2ccc(N3CCOCC3=O)cc2)C1`, the Papp in [14] amounted to 0.46 ×10⁻⁶ cm/s.
Take `CCCS(=O)(=O)N1C[C@H](C(=O)Nc2ccc(Cl)cc2)[C@@H](C(=O)Nc2ccc(-n3ccccc3=O)cc2F)C1`: the logD in series [1] stood at 2.94.
Consider `O=C(Nc1ccc(Cl)cn1)[C@H]1CN(CC(F)F)C[C@@H]1C(=O)Nc1ccc(-n2ccccc2=O)cc1F`, for which the half-life was 1.3 h in [2] and 6.3 h in series [5]. Moreover, the results for the AUC in series [3] and in [9] were 10000 ng·h/mL and 1700 ng·h/mL, respectively. The clearance is 2.1 mL/min/kg in series [4] and 6.4 mL/min/kg in [7]. The Phospholipidosis entry in series [6] is given as “Not Active”. The compound also registered a pKa in series [8] of 4.79. For the same compound, the bioavailability in [10] was 100%; in series [11], 65%. Further, the logD in [1] was found to be 2.2. Also, the Vd in series [12] was 0.54 L/kg; in [13], 0.18 L/kg.
For `CS(=O)(=O)N1C[C@H](C(=O)Nc2ccc(OC(F)(F)F)cc2)[C@@H](C(=O)Nc2ccc(-n3ccccc3=O)cc2F)C1`, in [1], the logD was found to be 2.36.
In the case of `COC(=O)N1C[C@H](C(=O)Nc2ccc(Cl)cc2)[C@@H](C(=O)Nc2ccc(-n3ccccc3=O)cc2F)C1`, the logD in [1] was 2.43.
Turning to `COC(=O)N1C[C@H](C(=O)Nc2ccc(Cl)cn2)[C@@H](C(=O)Nc2ccc(-n3ccccc3=O)cc2F)C1`, the half-life is 1.5 h in series [2] and 5 h in [5]. The AUC in series [3] is 2300 ng·h/mL; in series [9] it was 6700 ng·h/mL. For the same compound, the clearance in series [4] amounted to 7.3 mL/min/kg; in series [7], 1.8 mL/min/kg. For the same compound, the Phospholipidosis entry in [6] is listed as “Not Active”. The compound also came in with a pKa in series [8] of 2.75. For the same compound, the bioavailability was determined as 100% in [10] and 64% in [11]. Besides, the logD in series [1] amounted to 2.02. In addition, the figures for the Vd in series [12] and in series [13] were 0.44 L/kg and 0.42 L/kg, respectively.
In the case of `O=C(Nc1ccc(Cl)cc1)[C@H]1CN(S(=O)(=O)CC(F)(F)F)C[C@@H]1C(=O)Nc1ccc(-n2ccccc2=O)cc1F`, the log distribution coefficient (logD) in series [1] is 2.68.
